According to the Deep4Chem optical property database:
Each block holds one molecule with its values, some of them ahead of it.

Experiment: solvent given as SMILES

absorption maximum (in ClCCl): 394 nm
absorption maximum (in c1ccccc1): 394 nm
Structure (SMILES): c1ccc2c(c1)Nc1ccccc1B2c1c2ccccc2cc2ccccc12

absorption maximum (in CC#N): 403 nm
absorption maximum (in CN(C)C=O): 416 nm
absorption maximum (in ClCCl): 447 nm
Structure (SMILES): CCN(CC)c1ccc(/C=N/c2cc3ccccc3cc2/N=C/c2ccc(N(CC)CC)cc2O)c(O)c1

absorption maximum (in C1CCOC1): 356 nm
Structure (SMILES): COc1ccc(C(=Cc2ccc(C=O)cc2)c2ccc(OC)cc2)cc1

absorption maximum (in CC#N): 317 nm
Structure (SMILES): c1ccc(-c2nc(-c3cccs3)[nH]c2-c2ccccc2)cc1

absorption maximum (in CCCCCC): 665 nm
Structure (SMILES): F[B-]1(F)n2c(ccc2-c2cccs2)C(C(F)(F)F)=C2C=CC(c3cccs3)=[N+]21

absorption maximum (in CCO): 492 nm
Structure (SMILES): CN1C(=CC2=C(O)C(=O)C2=C2C(=O)c3ccccc3C2=O)C(C)(C)c2ccccc21

absorption maximum (in CO): 398 nm
Structure (SMILES): c1ccc(N(c2ccccc2)c2ccc(-c3cnc(-c4ccc(N(c5ccccc5)c5ccccc5)cc4)s3)cc2)cc1

absorption maximum (in CCO): 259 nm
absorption maximum (in ClC(Cl)Cl): 360 nm
Structure (SMILES): COc1ccc2c(-c3nc(-c4cccc(Br)c4)no3)cc(=O)oc2c1

absorption maximum (in ClCCl): 410 nm
Structure (SMILES): O=C(O)C1=C(C(=O)O)C2=C[C@H]3c4ccccc4[C@]2(S1)c1ccccc13

absorption maximum (in ClCCl): 486 nm
Structure (SMILES): c1ccc2c(C3=C(c4cccc5ccccc45)c4cccc5c4c(cc4nc6ccccc6nc45)O3)cccc2c1

absorption maximum (in C1CCCCC1): 290 nm
Structure (SMILES): CCOC(=O)CCOc1ccc(C(c2c(C)[nH]c3ccccc23)c2c(C)[nH]c3ccccc23)cc1

absorption maximum (in CO): 387 nm
Structure (SMILES): c1ccc(N(c2ccccc2)c2ccc(-c3ncc(-c4cccs4)s3)cc2)cc1

absorption maximum (in ClCCl): 329 nm
Structure (SMILES): O=Cc1ccc2c(c1)c1ccccc1n2-c1ccc(-c2ccc(-n3c4ccccc4c4cc(C=O)ccc43)cc2)cc1

absorption maximum (in ClCCl): 387 nm
Structure (SMILES): O=P1(c2ccccc2)C(c2ccccc2)=Cc2cc3ccccc3cc21 (centres undefined)

The next lines start with the molecule.

Structure (SMILES): CCn1c2ccccc2c2c3nsnc3c3c4ccccc4n(CC)c3c21
absorption maximum (in CN(C)C=O): 420 nm
absorption maximum (in Cc1ccccc1): 420 nm
absorption maximum (in ClCCl): 420 nm

Structure (SMILES): c1ccc2cc3c4c(ccc3cc2c1)-c1cccc2cccc-4c12
absorption maximum (in CCCCCCC): 407 nm

Structure (SMILES): COc1ccc(C2=c3sc(-c4ccc(OC)cc4)cc3=[N+]3C2=Nc2c(-c4ccc(OC)cc4)c4sc(-c5ccc(OC)cc5)cc4n2[B-]3(F)F)cc1
absorption maximum (in ClC(Cl)Cl): 788 nm

Structure (SMILES): CCCCn1c(-c2ccc(-c3nnc(-c4ccc(-c5nc6c7ccccc7c7ccccc7c6n5CCCC)cc4)o3)cc2)nc2c3ccccc3c3ccccc3c21
absorption maximum (in ClCCl): 366 nm

Structure (SMILES): Cc1ccc2oc(-c3cc4cc(C)ccc4oc3=O)cc2c1
absorption maximum (in CC#N): 372 nm
absorption maximum (in CCOC(C)=O): 374 nm
absorption maximum (in CS(C)=O): 377 nm
absorption maximum (in Cc1ccccc1): 378 nm
absorption maximum (in O): 351 nm

Structure (SMILES): CN(C)c1ccc(C2=Nc3scc(-c4ccc([N+](=O)[O-])cc4)[n+]3[B-](F)(F)O2)cc1
absorption maximum (in C1CCOC1): 412 nm
absorption maximum (in CC#N): 411 nm
absorption maximum (in Cc1ccccc1): 415 nm
absorption maximum (in ClCCl): 417 nm

Structure (SMILES): COCCC1=Cc2nc1ccc1[nH]c(cc1CCOC)c1nc(c(O)cc3[nH]c2cc3CCOC)C(CCOC)=C1
absorption maximum (in Cc1ccccc1): 680 nm

Structure (SMILES): CCN(CC)c1ccc(-c2nc3c(nc2-c2ccc([B-](F)(c4c(C)cc(C)cc4C)c4c(C)cc(C)cc4C)cc2)c2ccccc2n3C)cc1
absorption maximum (in C1CCOC1): 414.75 nm

Structure (SMILES): CC(C)(C)c1ccc2c(c1)c1cc(C(C)(C)C)cc3c1n2-c1cc(-c2ccccc2F)cc2c1B3c1cc(C(C)(C)C)cc3c4cc(C(C)(C)C)ccc4n-2c13
absorption maximum (in Cc1ccccc1): 471.56 nm

Structure (SMILES): O=S(=O)(c1ccc(N(c2ccccc2)c2ccccc2)cc1)c1ccc(S(=O)(=O)c2ccc(N(c3ccccc3)c3ccccc3)cc2)cc1
absorption maximum (in Cc1ccccc1): 354 nm

Structure (SMILES): N#Cc1c(-n2c3ccc(I)cc3c3cc(I)ccc32)c(-n2c3ccc(I)cc3c3cc(I)ccc32)c(C#N)c(-n2c3ccc(I)cc3c3cc(I)ccc32)c1-n1c2ccc(I)cc2c2cc(I)ccc21
absorption maximum (in Cc1ccccc1): 361 nm

Structure (SMILES): Cc1cc2c(ccc3c(C)[n+](C)c(C)cc32)c(C)[n+]1C
absorption maximum (in CC#N): 406 nm
